Here are results for 18 compounds from PubChem BioAssay (NCI).

What all share (experiment): growth of human tumour cells (NCI), 48 h
Assay [1] has as its system COLO 205 colon.
For assay [2], the system named is EKVX NSCLC.
The test system of assay [3] is HCT-116 colon.
The subject of assay [4] is LOX IMVI melanoma.
The subject of assay [5] is MOLT-4 leukemia.
The subject of assay [6] is NCI/ADR-RES ovarian.
In assay [7] the test system is PC-3 prostate.
The subject of assay [8] is SF-295 CNS.
The subject of assay [9] is SW-620 colon.
Assay [10] deals with UACC-62 melanoma.

Each structure is given as a SMILES string.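 Test compounds were applied to cells in 96-well plates for 48 hours at 5 doses. At the GI50, growth is halved. Definition used: TGI = concentration required for complete inhibition of growth.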

`O=c1c2ccccc2sc2cccc(NCCCN3CCN(CCCNc4cccc5sc6ccccc6c(=O)c45)CC3)c12`: the TGI in [1], in [2], in assay [3], in assay [4], in assay [5] and in assay [6] was above 100 µM throughout. Further, the TGI in assay [7], in [8], in assay [9] and in [10] was above 100 µM throughout.
As for `Cc1nc2ccccc2nc1-c1ccc(N=[N+]([O-])c2ccc(-c3nc4ccccc4nc3C)cc2)cc1`, the TGI in [1], in [2], in assay [3], in assay [4], in assay [5] and in [6] was above 100 µM in each case. In addition, the TGI in assay [7], in assay [8], in [9] and in [10] was above 100 µM each time.
For the compound `CCN(CC)c1nc(-c2ccc(Cl)cc2Cl)nc2ccccc12`, the GI50 is 19.5 µM in assay [1]; 0.333 µM in [2]; 14.8 µM in [3]; 17.1 µM in [4]; 42.9 µM in assay [5]; 23 µM in assay [6]. Also, the GI50 in assay [7] was 24.1 µM; in assay [8] it was 22.8 µM; in assay [9] it was 15.5 µM; in assay [10], 13.7 µM. Besides, the TGI was 48.8 µM in assay [1]; 5.05 µM in assay [2]; 29 µM in assay [3]; 36 µM in assay [4]; above 100 µM in assay [5]; above 71.1 µM in assay [6]. For the same compound, the TGI was above 63.3 µM in assay [7], 62.4 µM in assay [8], 34.4 µM in assay [9] and 41.3 µM in assay [10].
As to `COc1ccc(-c2oc(=O)ccc2-c2cc(OC)c(OC)c(OC)c2)cc1F`, the GI50 is 18 µM in assay [1]; 46.4 µM in [2]; 10.9 µM in assay [3]; 10.9 µM in assay [4]; 22.4 µM in [5]; 11 µM in assay [6]. In addition, the GI50 was 37.2 µM in [7], 6.67 µM in assay [8], 5.79 µM in [9] and 10.2 µM in [10]. Besides, the TGI in [1], in assay [2], in [3], in [4], in [5] and in assay [6] was above 100 µM throughout. The TGI in [7] is above 100 µM; in [8] it was 89.7 µM; in [9], above 100 µM; in assay [10] it was above 100 µM.
As to `COc1cc(C2c3cc4c(cc3C(O)C(CO)C2CO)OCO4)cc(OC)c1OC` (stereo unspecified), the GI50 in assay [1] is 0.725 µM; in assay [2] it was 1.27 µM; in [3], 0.492 µM; in assay [4], 0.656 µM; in assay [5], 1.59 µM; in assay [6] it was 21.5 µM. For the same compound, the GI50 in assay [7] is 0.596 µM; in assay [8], 0.219 µM; in [9] it was 0.37 µM; in [10], 0.534 µM. For the same compound, the TGI in assay [1] was 5.76 µM; in assay [2], above 71 µM; in [3], above 100 µM; in assay [4], above 100 µM; in [5] it was above 100 µM; in assay [6], above 100 µM. Moreover, the TGI in [7] is above 100 µM; in assay [8], 0.468 µM; in assay [9], above 100 µM; in assay [10], above 100 µM.
Regarding `COc1ccc(C(O)c2nccn2C)c(OC)c1` (stereo unspecified), the TGI in assay [1], in [2], in [3], in assay [5], in assay [6] and in assay [7] was above 100 µM in each case. Besides, the TGI in assay [8], in assay [9] and in assay [10] was above 100 µM in each case.
Regarding `CC(=O)OC12c3ccccc3-c3ccccc3C1C1C(=O)N(C)C(=O)C12Cl` (stereo unspecified), the TGI in assay [1], in assay [2], in [4], in assay [5], in assay [6] and in [7] was above 10 µM in each case. The TGI in assay [8] and in assay [9] was above 10 µM in each case.
As to `Cn1cc(C2=C(c3cn(C)c4cc(C(N)=O)ccc34)C(=O)NC2=O)c2ccccc21`, the GI50 in assay [1] was 0.914 µM; in assay [3], 1.08 µM; in [4], 1.76 µM; in [5] it was 1.83 µM; in assay [6], 1.16 µM; in [7], 0.909 µM. The GI50 is 0.987 µM in [8], 1.27 µM in [9] and 2.31 µM in [10]. The TGI in assay [1] was 6.08 µM; in [3], above 21.6 µM; in assay [4] it was above 25 µM; in [5], above 20.9 µM; in assay [6], above 25 µM; in assay [7] it was above 25 µM. Further, the TGI is above 25 µM in assay [8], above 25 µM in [9] and above 16.8 µM in assay [10].
On to `CC(C)=CCc1cc(O)cc2c1OC(C=C(C)C)C1=C2C(=O)C2=C(NCCS2(=O)=O)C1=O` (stereo unspecified), for which the GI50 was 2.67 µM in [1]; 2.73 µM in [2]; 0.611 µM in assay [3]; 2.04 µM in [4]; 2.23 µM in assay [5]; above 16.7 µM in assay [6]. Also, the GI50 in assay [7] was 4.14 µM; in [9], 2.32 µM; in assay [10], 0.875 µM. The TGI is 5.57 µM in assay [1]; 9.57 µM in assay [2]; 2.45 µM in assay [3]; 5 µM in [4]; 7.19 µM in assay [5]; above 16.7 µM in assay [6]. In addition, the TGI in assay [7] was above 16.7 µM; in assay [9], 5.78 µM; in assay [10], 3.5 µM.
On to `Nc1c(C(=O)Nc2cccc(Br)c2)sc2nc3c(cc12)C(=O)CCC3`, for which the GI50 is 0.401 µM in assay [1]; 0.534 µM in assay [3]; 18.5 µM in assay [5]; 0.475 µM in [6]; 0.457 µM in [7]; 0.455 µM in assay [8]. Further, the results for the GI50 in assay [9] and in [10] were 0.426 µM and 0.516 µM, respectively. Moreover, the TGI in assay [3] was above 100 µM; in assay [5], above 100 µM; in assay [6] it was above 100 µM; in [7] it was above 100 µM; in [8] it was above 59.7 µM; in assay [9] it was above 100 µM. In assay [10], this compound yielded a TGI above 100 µM.
For `COC12C=C/C(=C(/C(=O)OCc3ccncc3)C(=O)CCCCCCCCC3(OC)C=C/C(=C(/C(=O)OCc4ccncc4)C(=O)CCCCCCCC1)O3)O2`, the GI50 in [1] is 0.78 µM; in assay [2] it was 1.21 µM; in assay [3], 0.111 µM; in assay [4], 0.107 µM; in assay [5], 0.172 µM; in [6], 0.774 µM. Further, the GI50 was 0.761 µM in assay [7], 0.899 µM in [8] and 0.227 µM in assay [9]. For the same compound, the TGI in [1] turned out to be 2.18 µM; in [2] it was 5.1 µM; in [3] it was 0.239 µM; in assay [4], 0.264 µM; in assay [5], 1.85 µM; in [6] it was 3.93 µM. In addition, the TGI came to 2.67 µM in [7], 3.29 µM in assay [8] and 1.26 µM in assay [9].
Regarding `CC1=CC(=O)[C@@H](O)[C@]2(C)[C@H]3[C@@]4(O)OC[C@]35[C@H]([C@@H](C)[C@H]4O)[C@@H](O)C(=O)O[C@@H]5C[C@@H]12`, the TGI in assay [1] was 2.45 µM; in assay [2] it was 6.31 µM; in [3] it was 0.288 µM; in [4], 0.62 µM; in [6] it was 22.6 µM; in assay [7] it was 1.67 µM. Further, the TGI came to 3.7 µM in assay [8], 6.78 µM in assay [9] and 6.29 µM in assay [10].
In the case of `COC1C(O)=C2C(=O)O/C(C)=C/C=C/C=C/C=C\CC(c3ccccc3)NC(=O)\C=C/C=C\C=C\C=C\[C@@]2(C)[C@@H]1O` (stereo partly specified), the TGI in assay [1] turned out to be 0.0564 µM; in assay [2] it was 0.279 µM; in [3] it was 0.0198 µM; in assay [4], 1.09 µM; in [5], 0.177 µM; in assay [7], 0.103 µM. For the same compound, the TGI in assay [8] was determined as 0.0238 µM; in assay [9], 0.139 µM; in assay [10], 0.551 µM.
For the compound `O=c1cc(-c2ccccc2)[nH]c2c(S)cccc12`, the TGI in assay [1], in assay [3], in assay [5], in assay [6], in assay [7] and in assay [8] was above 100 µM throughout. Further, the TGI in assay [9] and in [10] was above 100 µM in each case.
Turning to `COc1cccc2c1C(=O)c1c(O)c3c(c(O)c1C2=O)CC(O)(/C(C)=N/NC(=O)CCC(=O)N/N=C(\C)C1(O)Cc2c(O)c4c(c(O)c2C(OC2CC(N)C(O)C(C)O2)C1)C(=O)c1c(OC)cccc1C4=O)CC3OC1CC(N)C(O)C(C)O1` (stereo unspecified), the GI50 in assay [1] is 0.157 µM; in assay [2], 1.12 µM; in assay [3], 0.147 µM; in [4], 0.126 µM; in [5], 0.142 µM; in assay [6], 13.5 µM. Moreover, the GI50 in assay [7] is 0.958 µM; in [8], 0.42 µM; in assay [9] it was 0.193 µM. In addition, the TGI in assay [1] is 0.795 µM; in [2], 22.1 µM; in assay [3] it was 0.914 µM; in assay [4], 1.05 µM; in assay [6], above 50 µM; in assay [7], above 21.2 µM. For the same compound, the TGI in [8] was determined as 6.51 µM; in [9] it was 5.36 µM.
Regarding `COc1cc(-c2nn(-c3cccc(NC(=O)Nc4ccc(Cl)c(Cl)c4)c3)cc2-c2ccncc2)ccc1Cl`, the GI50 is 0.937 µM in [1]; 1.21 µM in [3]; 0.953 µM in assay [4]; 1.1 µM in assay [5]; 0.99 µM in [6]; 0.554 µM in assay [7]. Moreover, the GI50 in assay [8] was 0.691 µM; in assay [9] it was 1.59 µM; in [10] it was 0.773 µM. In addition, the TGI in [1] was 1.72 µM; in assay [3], above 50 µM; in assay [4] it was 2.62 µM; in assay [5], 4.48 µM; in [6], 4.67 µM; in [7], 2.83 µM. In addition, the TGI in assay [8] was 2.53 µM; in assay [9] it was above 50 µM; in assay [10], 1.86 µM.
In the case of `N#C/C=C(\c1ccc([N+](=O)[O-])cc1)n1nnc2cc(Cl)c(Cl)cc21`, the GI50 was 1.91 µM in assay [1]; 1.91 µM in [2]; 1.34 µM in assay [3]; 1.67 µM in [4]; 2.71 µM in [5]; 2.54 µM in [6]. Further, the GI50 was 1.56 µM in assay [7], 1.75 µM in assay [9] and 1.77 µM in assay [10]. The TGI in assay [1] is 3.91 µM; in assay [2], 4.67 µM; in assay [3], 2.7 µM; in [4], 3.19 µM; in assay [5] it was above 100 µM; in assay [6], 8.79 µM. Moreover, the values for the TGI in assay [7], in assay [9] and in assay [10] were 4 µM, 4.15 µM and 3.95 µM, respectively.
Regarding `CCN(CC)CCOc1ccc(/C=C2\CC3C4CC=C5C[C@@H](O)CC[C@]5(C)C4CC[C@]3(C)C2=O)cc1OC` (stereo partly specified), the GI50 in [2] was 9.56 µM; in [3] it was 2.44 µM; in assay [5] it was 2.04 µM; in assay [6] it was 16.2 µM; in assay [7] it was 3.48 µM; in assay [8], 2.6 µM. The results for the GI50 in assay [9] and in assay [10] were 2.54 µM and 1.71 µM, respectively. Also, the TGI was above 52.1 µM in assay [2]; 8.79 µM in assay [3]; above 23.5 µM in [5]; 56.1 µM in [6]; above 39.1 µM in [7]; 10.3 µM in assay [8]. Moreover, the TGI in assay [9] is above 20.5 µM; in [10], 3.3 µM.
